Data from ChEMBL document CHEMBL5209582, “Membrane potential based assay for SLC6A6 using HEK-293 SLC6A6 OE cells” (2022).

Target: T1, Sodium- and chloride-dependent taurine transporter (Homo sapiens, UniProt P31641)
T1 sequence (P31641 whole entry): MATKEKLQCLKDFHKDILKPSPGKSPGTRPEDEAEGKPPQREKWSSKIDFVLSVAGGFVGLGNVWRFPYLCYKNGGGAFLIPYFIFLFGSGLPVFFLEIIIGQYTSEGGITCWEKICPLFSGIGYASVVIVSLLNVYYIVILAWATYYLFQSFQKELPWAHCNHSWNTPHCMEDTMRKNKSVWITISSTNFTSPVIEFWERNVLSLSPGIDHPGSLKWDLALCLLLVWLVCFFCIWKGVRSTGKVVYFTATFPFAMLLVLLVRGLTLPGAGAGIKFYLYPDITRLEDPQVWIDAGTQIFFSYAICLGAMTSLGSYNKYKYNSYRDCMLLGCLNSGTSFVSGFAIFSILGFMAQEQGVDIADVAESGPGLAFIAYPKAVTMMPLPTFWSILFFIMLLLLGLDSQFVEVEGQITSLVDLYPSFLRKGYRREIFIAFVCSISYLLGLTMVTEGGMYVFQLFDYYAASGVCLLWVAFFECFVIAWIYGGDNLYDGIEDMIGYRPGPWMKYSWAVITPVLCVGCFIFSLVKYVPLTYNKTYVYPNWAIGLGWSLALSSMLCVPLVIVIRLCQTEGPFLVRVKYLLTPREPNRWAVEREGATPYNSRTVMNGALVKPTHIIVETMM
Assay: Substrate uptake by the Taurine Transporter (TauT, SLC6A6) as assessed by the fluorescent FLIPR membrane potential dye in HEK-293 JumpIN-SLC6A6 cells (PubChem AID: 1794824)
Format: functional, cell-based, HEK293

| EC50 [µM] | SMILES |
| --- | --- |
| 354 | NCCCC(=O)O [GAMMA-AMINOBUTYRIC ACID] |
| 10 | NCCS(=O)(=O)O [TAURINE] |
